From patent US20050209216A1, “Phenyl-and pyridyl-diazaheterocycles having a tnf-modulating activity” (priority 2002, published 2005)
Counter-ions that a name gives are not always drawn.

First: Clc1cccc(N2CCN(CCc3ccc4cccnc4c3)CC2)n1 (as salt: oxalate) [Example 10]
Second: FC(F)(F)c1cccc(N2CCN(CCc3ccc4cccnc4c3)CC2)n1 (as salt: hydrochloride) [Example 11]
The melting point of the first is lower: 170 to 172 °C for the first, 228 to 230 °C for the second.

Compared with `FC(F)(F)c1cccc(N2C3CCC2CN(CCc2ccc4ccncc4c2)C3)n1` (as salt: hydrochloride) (hydrate or solvate), `FC(F)(F)c1cccc(N2CC3CCC(C2)N3CCc2ccc3ccncc3c2)n1` (as salt: hydrochloride) (hydrate or solvate) is higher in melting point: 158 to 160 °C for the first, 258 to 260 °C for the second.

First: Clc1cccc(N2CC3CCC(C2)N3CCc2ccc3ccncc3c2)n1
Second: FC(F)(F)c1cccc(N2CC3CCC(C2)N3CCc2ccc3ccncc3c2)c1 (as salt: oxalate)
The melting point of the first is higher: 141 to 142 °C for the first, 97 to 99 °C for the second.

First: FC(F)(F)c1ccc(N2CCN(CCc3ccc4cccnc4c3)CC2)nc1 (as salt: hydrochloride) [Example 12]
Second: FC(F)(F)c1cccnc1N1CCN(CCc2ccc3cccnc3c2)CC1 (as salt: hydrochloride) [Example 13]
The melting point of the first is lower: 108 to 110 °C for the first, 163 to 164 °C for the second.

First: Clc1cccc(N2CCN(CCc3ccc4ccncc4c3)CC2)n1 (as salt: hydrochloride) (hydrate or solvate) [Example 3]
Second: FC(F)(F)c1cccc(N2CCCN(CCc3ccc4ccncc4c3)CC2)c1 (as salt: oxalate) [Example 4]
The melting point of the first is lower: 108 to 110 °C for the first, 135 to 137 °C for the second.

In the case of `FC(F)(F)c1cccc(N2C3CCC2CN(CCc2ccc4ccncc4c2)C3)c1` (as salt: hydrochloride) (hydrate or solvate), the melting point is reported as 151 to 153 °C.
